Measured values taken from patent US20240115545A1, “PHARMACEUTICAL COMPOSITION CONTAINING B-LAPACHONE AS ACTIVE INGREDIENT FOR PREVENTION OR TREATMENT OF CHOLESTATIC LIVER DISEASE” (CUROME BIOSCIENCES CO., LTD., priority 2020, published 2024).

Columns and labels:
[1] = test system: DDC-induced cholestatic liver disease mice; assay: Blood indexes (ALT, AST, ALP, bilirubin), DDC and β-lapachone given together for 7 days (Example 3.1); type: in vivo
Experimental: DDC-induced cholestatic liver disease mouse animal models were prepared according to the method of Elisa Pose et al. by using 8-week-old C57BL/6 male mice (Samtako, Korea). Briefly, cholestatic liver disease was induced by feeding a standard rodent diet supplemented with 0.1% (w/w) DDC for 7 or 14 days. The 12-hour light and dark cycle was maintained and animals were allowed to free access to water. The standard rodent diet included medium wheat, wheat, corn, and corn gluten flour, and soybean oil (14% protein). All animal related procedures were reviewed and approved by the Institutional Animal Care and Use Committee of Korea Research Institute of Bioscience and Biotechnology (KRIBB), KRIBB-AEC-20165).
To investigate the effect of β-lapachone (BL) on the occurrence of cholestatic liver disease, both […] and β-lapachone were administered to mice to characterize animal models.
(§1) After 8-week-old C57BL/6 male mice (Samtako, Korea) were divided into each group (=6), the mice were fed a diet with normal (vehicle), control (DDC), DDC+β-lapachone 20 mg/kg, DDC+β-lapachone 40 mg/kg, DDC+β-lapachone 80 mg/kg, DDC+β-lapachone 100 mg/kg, and positive control DDC+ursodeoxycholic acid 100 mg/kg, and DDC+obeticholic acid 30 mg/kg (total 7 days). After 7 days of treatment, the mice were sacrificed and then the blood was collected from the heart. Thereafter, the levels of alanine aminotransferase (ALT), aspartate aminotransferase (AST), alkaline phosphatase (ALP), and bilirubin, which are blood indexes, were analyzed, and shown in FIG. 4.

fibrosis-related genes = assay: mRNA levels of fibrosis-related genes in liver tissue (Example 3.2); type: in vivo, mice; conditions: β-lapachone with DDC in diet, 7 days; depending on the concentration
Experimental: as §1
After the cholestatic liver disease mouse animal models in Example 3.1 were sacrificed and the liver tissue was harvested therefrom, the mRNA levels of fibrosis-related genes were measured by a method similar to the method in Example 2.3.
In the cholestatic liver disease mouse models, the bile ducts were damaged and fibrosis was induced, by DDC, and accordingly, the transcriptional levels of collagen type 1 alpha 1 (Co|1α1), transforming growth factor beta 1 (TGF-β1), and collagen type I alpha 2 (Co|1α2), which are important factors in the development of fibrosis, were investigated, and the results are shown in FIG. 5.

[2] = test system: inflammation-related genes; assay: mRNA levels of inflammatory cytokine genes in liver tissue (Example 3.3); type: in vivo, mice; conditions: β-lapachone with DDC in diet, 7 days
Experimental: as §1
In the cholestatic liver disease, the inflammation in the portal vein and damage to the bile ducts in the liver occur chronically, resulting in cholestasis and liver fibrosis. The mRNA levels of inflammatory cytokine genes in the liver tissue of the cholestatic liver disease mouse animal models obtained by the same method as in Example 3.1 were measured, and shown in FIG. 6.

[3] = test system: DSS-induced inflammatory bowel disease mice; assay: Survival rate, body weight and colitis score in DSS-induced acute colitis mice (Example 6.1); type: in vivo; conditions: for mice died: 14th day of the experiment (DSS alone 70%)
Experimental: Dextran sodium sulfate (DSS)-induced acute colitis mouse models were constructed using 8-week-old C57BL/6 female mice (Samtako, Korea).
(§2) After 8-week-old C57BL/6 female mice (Samtako, Korea) were divided into each group (=10), each experimental group was fed a standard rodent diet supplemented with 3% (w/w) DSS in drinking water for the first 5 days to induce acute colitis and orally administered control (vehicle), β-lapachone 40 mg/kg, and β-lapachone 80 mg/kg for 14 days.
All animal-related procedures were discussed and approved by the Institutional Animal Care and Use Committee of the Hanyang University. The survival rate over time is shown in FIG. 9, and the change rate in body weight of mice in each experimental group was measured and shown in FIG. 10A. The fecal occult bleeding per rectum, total bleeding loss, and fecal concentration were measured daily.

[4] = test system: inflammatory cytokine factors in the colon tissue; assay: mRNA levels of inflammatory cytokine factors in colon tissue of DSS mice (Example 6.2); type: in vivo; conditions: DSS + β-lapachone 80 mg/kg
Experimental: as §2
By the same method as in Example 6.1, experimental groups were divided into a DSS untreated group (Control), a DSS treated group, and a DSS+β-lapachone 80 mg/kg treated group, respectively, and treated. After the end of the experiment, the mice were sacrificed to remove the colon, and the accurate colon length was measured using a Vernier caliper, and is shown FIGS. 11A and 11B. In addition, the mRNA levels of genes of interleukin-1beta (IL-1β), interleukin-6 (IL-6), interleukin-18 (IL-18), interferon-γ (INF-γ), tumor necrosis factor-α (TNF-α), tumor necrosis factor-β (TNF-β), and monocyte chemoattractant protein-1 (MCP-1), which were inflammatory cytokine factors in the colon tissue, were analyzed by a real-time polymerase chain reaction through a conventional experiment procedure, and are shown in FIG. 12.

[5] = test system: LX-2 hepatic stellate cell line; assay: Fibronectin and α-SMA protein expression in TGF-β1-treated LX-2 hepatic stellate cells (immunoblotting); type: cell-based; conditions: LX-2 cells, 1 ng/ml TGF-β1 + 0.5 or 1 μM β-lapachone, 24 hours
Experimental: Considering that inflammation and fibrosis of bile ducts cause cirrhosis in cholestatic liver disease, experiments were performed on the LX-2 hepatic stellate cell line model by using the method of Takaaki Higashi et al. (2017). The LX-2 cell line was subcultured in DMEM containing 10% FBS, 2 mM glutamine, 100 U penicillin, and 0.1 mg/ml streptomycin. The LX-2 cell line was added into a 6-well plate at a density of 16×10^4 cells/well, and cultured in DMEM containing 1 ng/ml TGF-β1, 1 ng/ml TGF-β1+0.5 μM β-lapachone or 1 ng/ml TGF-β1+1 μM β-lapachone for 24 hours. Thereafter, the protein expression levels of the fibrosis-related genes fibronectin and α-SMA of the obtained cells were measured by protein immunoblotting according to a conventional method known in the art.

[6] = 20, 40, 80, 100 mg/kg in diet with DDC, depending on the concentration

SMILES: CC1(C)CCC2=C(O1)c1ccccc1C(=O)C2=O [β-lapachone]
- ALP in the blood increased by DDC [1, 6]: inhibited
- ALT in the blood increased by DDC [1, 6]: inhibited
- AST in the blood increased by DDC [1, 6]: inhibited
- bilirubin in the blood increased by DDC [1, 6]: inhibited
- effect on blood indexes compared with positive controls ([1]; vs ursodeoxycholic acid 100 mg/kg and obeticholic acid 30 mg/kg): excellent effects compared with ursodeoxycholic acid (UDCA) and obeticholic acid (OCA)
- transcriptional level of Co|1α1 in liver (fibrosis-related genes): inhibited
- transcriptional level of Co|1α2 in liver (fibrosis-related genes): inhibited
- transcriptional level of TGF-β1 in liver (fibrosis-related genes): inhibited
- transcriptional level of IL-1β in liver [2]: inhibited
- transcriptional level of TNFα in liver [2]: inhibited
- mice died ([3]; 40 mg/kg orally for 14 days): 50%
- body weight recovered, relative to initial body weight ([3]; 80 mg/kg orally (DSS alone reduced to 75% on Day 8)): up to 90%
- mice died ([3]; 80 mg/kg orally for 14 days): 20%
- colitis score ([3]; 40 and 80 mg/kg orally, 14 days): reduced depending on the treatment concentration
- body weight reduction by DSS ([3]; groups treated with β-lapachone 40 and 80 mg/kg orally): inhibited
- mRNA level of IL-1β in colon tissue [4]: significantly reduced
- mRNA level of IL-6 in colon tissue [4]: significantly reduced
- mRNA level of IL-18 in colon tissue [4]: significantly reduced
- mRNA level of INF-γ in colon tissue [4]: significantly reduced
- mRNA level of MCP-1 in colon tissue [4]: significantly reduced
- mRNA level of TNF-α in colon tissue [4]: significantly reduced
- mRNA level of TNF-β in colon tissue [4]: significantly reduced
- protein expression level of fibronectin increased by TGF-β1 [5]: reduced depending on the concentration
- protein expression level of α-SMA increased by TGF-β1 [5]: reduced depending on the concentration
